These results are taken from publication PMC11354909, “Preclinical Evaluation of Soluble Epoxide Hydrolase Inhibitor AMHDU against Neuropathic Pain” (International Journal of Molecular Sciences, 2024).

One data set relates to rat paw edema model. Description: Freund's adjuvant rat paw edema model (anti-inflammatory activity). Format: in vivo. The note with it: for effect on paw edema (reduction of exudative reaction): day 4.
The subject of data set [1] is pain threshold of inflamed paw, adjuvant inflammation. Briefly: Randall–Selitto test in adjuvant inflammation (analgesic activity). In kind it is in vivo, rat.
The test system of data set [2] is STZ-rat neuropathic pain model. Description: Tactile allodynia (von Frey) in streptozotocin diabetic polyneuropathy. Format: in vivo. The protocol:
To evaluate the effect of the compound on the development of neuropathic pain, tactile hyperalgesia was evaluated in diabetic polyneuropathy in rats with 2-week streptozotocin-induced diabetes (35 mg/kg intraperitoneally). Only animals with developed allodynia and hyperalgesia were taken into the experiment, with 50% pain response indices not exceeding 6 g. Groups were formed randomly (n = 6). Tactile allodynia in rats was assessed by registering the pressure at which the animals jerked the right hind paw, avoiding exposure to stimuli of increasing degree. VonFrey hairs, which are 20 monofilaments of nylon filaments of different diameters attached to plastic handles, were applied to the right hind paw in turn from below through the mesh. The comparison drug gabapentin as well as the test compound AMHDU dissolved in 10% DMSO was administered intraperitoneally in 10 mg/kg dose 60 min. before the experiment. An equivalent volume of solvent was administered to control animals. The experiment was started with a monofilament labeled 4.31. If there was no response after 5 incidents of touching, the monofilament was successively changed to the next monofilament with higher strength. […] The 50% threshold of paw retraction during successive increases and decreases in stimulus strength was determined using the UP-AND-DOWN method.

A short description of data set [3]: Pharmacokinetic study, intraperitoneal injection. In kind it is in vivo, male Swiss–Webster mice. The protocol: Animal experiments were approved by the Animal Use and Care Committee of University of California, Davis. Compounds were formulated in 5% EtOH, 95% PEG400 at a concentration of 0.25 mg/mL. […] […] For compound detection in plasma, 10 µL whole blood was sampled by tail nick and transferred immediately to 50 µL water containing 0.1% EDTA. Samples were extracted as previously described and stored at −20 °C until analysis. Samples were analysed by LC-MS/MS on an Agilent SL 1200 series LC system (Agilent, Palo Alto, CA, USA) connected to a 4000 Qtrap mass spectrometer (Applied Biosystems Instrument Corporation, Foster City, CA, USA) with Turbo V ion source. Liquid chromatography was performed on a Kinetex R© C18 column (100 × 2.1 mm, 1.7 μm). The mass spectrometer was operated in positive modes with primary MRM scan of 499.377/143.153 and secondary scans of 499.377/149.190 and 499.377/166.204. Peaks were integrated using Analyst software v 1.6.3 (Ab Sciex, Washington, DC, USA) and quantified against a standard curve as previously described.

Data set [4] can be described thus: Acute oral toxicity (OECD test No. 423). The following applies: for Adrenal glands mass ratio to whole body weight / Brain mass ratio to whole body weight / Heart mass ratio to whole body weight / Kidneys mass ratio to whole body weight / Liver mass ratio to whole body weight / Lungs mass ratio to whole body weight / Ovaries mass ratio to whole body weight / Spleen mass ratio to whole body weight / Thymus mass ratio to whole body weight: 2 weeks after single intragastric dose, m ± SD. As to the method:
The acute toxicity of the substance by intragastric administration to female outbred rats was studied; the toxicity class, tolerated, toxic, lethal doses and character of toxic effect were determined according to the OECD test No. 423.
Experiments were performed on sexually mature laboratory white mongrel female rats, divided into experimental and control groups. Experimental animals were administered the AMHDU substance diluted in 50% dimethyl sulfoxide solution in the recommended GOST 32644-2014 initial dose of 300 mg/kg (n = 6), as well as the maximum dose of 2000 mg/kg (n = 3) in the maximum allowable volume of 20 mL/kg once intra-gastrically. Control animals (n = 6) were injected with dimethyl sulfoxide diluted 1:1 with purified water at volumes identical to those of the experimental animals. The animals were monitored for 2 weeks, continuously for the first 4 h after injection. Routine necropsy of all surviving animals was performed on day 15.

In data set [5] the target is soluble epoxide hydrolase (sEH). On the set-up: method as in PMID 24685540. The note with it: slow tight binding sEH inhibitor; cited from earlier work.
[6] abbreviates: individual animals No. 1-4, i.p., table dose 1 mg/kg, 1 mg/kg.

“And” between values parts separate entries of the source, which are not always exact repeats. Equal values may be shown once. “Also recorded” adds a separate entry of the source. Read-outs that look alike come from different tables or passages of the source.

Broadly, the AUC is concentration integrated over time. Usually half-life stands for the time needed for the level to fall by half in the phase considered. The Cmax is the peak of the concentration-time curve. A word on the MRT: it is a mean duration of stay, worked out from the concentration-time curve. The term Tmax denotes the time from dosing to the highest level. As usually defined, the AUC(0-t) is exposure summed from dosing to a finite time, without extrapolation to infinity. A lower AUC(0-t) goes with low exposure. As usually defined, the LD50 is the dose expected to kill half of the subjects tested. In general, IC50 refers to the midpoint of a concentration-inhibition curve. The term Ki denotes the equilibrium dissociation constant of an inhibitor or competing ligand from its target.

In the case of `O=C(NCCCCCCNC(=O)NCC12CC3CC(CC(C3)C1)C2)NCC12CC3CC(CC(C3)C1)C2` [AMHDU, 1,1′-(hexane-1,6-diyl)bis(3-((adamantan-1-yl)methyl)urea)], the “effect on the volume of the affected limb (paw edema)” value with rat paw edema model (5 mg/kg i.p. 2 times a day for 4 days, day 4 after adjuvant) is on record as “no significant effect”. Also, the “reduction of the primary exudative reaction (paw edema)” value with rat paw edema model (30 mg/kg i.p. 2 times a day for 4 days, day 4 after adjuvant) is listed as “no statistically significant reduction”. For the same molecule, the “anti-inflammatory effect (overall conclusion)” value in the data set on rat paw edema model (5 and 30 mg/kg i.p.) is reported as “lacks anti-inflammatory activity; also recorded: negligible anti-inflammatory effect”. Besides, the “effect on pain threshold” value in data set [1] (5 mg/kg i.p. 2 times a day for 4 days) is “no significant suppression of the pain threshold”. In addition, in data set [1] (30 mg/kg i.p. 2 times a day for 4 days), the “increase of paw-pulling threshold” value is recorded as 38%. Further, the “analgesic activity compared with reference drugs” value in data set [1] (AMHDU 30 mg/kg i.p. vs celecoxib 10 mg/kg, dexamethasone 5 mg/kg) is “superior to both dexamethasone and celecoxib”. In data set [2] (10 mg/kg i.p. both drugs), the “analgesic activity compared with gabapentin” value is “comparable to standard of care gabapentin”. For the same molecule, the “pain threshold relative to the control group” value in data set [2] (10 mg/kg i.p., 60 min before the experiment) was found to be 1.5 times. Further, the “compound left in the bloodstream” value in data set [3] (4 h after injection, i.p. 1.25 mg/kg) is “none is left in the bloodstream”. Also, in data set [3] (Swiss-Webster, mouse, whole blood, ip, i.p. 1.25 mg/kg, male mice), the AUC came to 26 ng·h/mL. Further, the half-life in data set [3] (Swiss-Webster, mouse, whole blood, ip, i.p. 1.25 mg/kg, male mice, read-out: half-life (Thalf)) is around 0.167 h. For the same molecule, in data set [3] (setting [6]), the AUClast was 24 ng·h/mL and 35 ng·h/mL and 31 ng·h/mL and 16 ng·h/mL; the Cmax is 24.32 ng/mL and 53.00 ng/mL and 31.93 ng/mL and 30.86 ng/mL; the MRT is 1.51 h and 1.04 h and 1.08 h and 0.55 h; the Thalf was 0.18 h and 0.16 h and 0.13 h and 0.15 h. Moreover, in data set [3] (setting [6]), the Tmax is 2.0 h and 0.5 h. In data set [3] (m ± SE of 4 mice, i.p.), this molecule yielded a Thalf of 0.16 ± 0.02 h. Moreover, the AUC(0-t) in data set [3] (male, Swiss-Webster, mouse, whole blood, ip, 1.25 mg/kg, m ± SE of 4 mice) is 26.4 ± 8.6 ng·h/mL. In addition, the Cmax in data set [3] (male, Swiss-Webster, mouse, whole blood, ip, 1.25 mg/kg, m ± SE of 4 mice, i.p., read-out: Cmax) was 35 ± 12.4 ng/mL. Moreover, the mean residence time (MRT) in data set [3] (male, Swiss-Webster, mouse, whole blood, ip, 1.25 mg/kg, m ± SE of 4 mice, i.p., read-out: MRT) is around 1 h. In addition, the Tmax in data set [3] (male, Swiss-Webster, mouse, whole blood, ip, 1.25 mg/kg, mean of 4 mice, i.p., read-out: Tmax) came out at 1 h. Moreover, in data set [4] (300 mg/kg, 2 weeks), the “Adrenal glands mass ratio, change compared to control group” value was “–8.5%”; the “Brain mass ratio, change compared to control group” value is “–0.1%”; the “Heart mass ratio, change compared to control group” value is recorded as “–6.4%”; the “Kidneys mass ratio, change compared to control group” value is listed as “–3.1%”. Also, in data set [4] (300 mg/kg, 2 weeks), the “Liver mass ratio, change compared to control group” value is on record as 2.1%; the “Lungs mass ratio, change compared to control group” value was “–3.5%”; the “Ovaries mass ratio, change compared to control group” value is given as “–1.0%”; the “Spleen mass ratio, change compared to control group” value was determined as 0.5%. The “Thymus mass ratio, change compared to control group” value in data set [4] (300 mg/kg, 2 weeks) is recorded as “–4.1%”. Moreover, in data set [4] (300 mg/kg), the “Adrenal glands mass ratio to whole body weight” value was found to be 0.04 ± 0.004%, the “Brain mass ratio to whole body weight” value worked out at 0.72 ± 0.02%, the “Heart mass ratio to whole body weight” value came to 0.33 ± 0.01% and the “Kidneys mass ratio to whole body weight” value was found to be 0.62 ± 0.02%. Besides, in data set [4] (300 mg/kg), the “Liver mass ratio to whole body weight” value is given as 3.03 ± 0.12%, the “Lungs mass ratio to whole body weight” value is on record as 0.60 ± 0.04%, the “Ovaries mass ratio to whole body weight” value turned out to be 0.05 ± 0.003% and the “Spleen mass ratio to whole body weight” value came out at 0.48 ± 0.01%. The “Thymus mass ratio to whole body weight” value in data set [4] (300 mg/kg) is 0.17 ± 0.03%. In data set [4] (2000 mg/kg, 2 weeks), the “Adrenal glands mass ratio, change compared to control group” value is listed as “–14.4%”; the “Brain mass ratio, change compared to control group” value is “–0.3%”; the “Heart mass ratio, change compared to control group” value is “–10.4%”; the “Kidneys mass ratio, change compared to control group” value was 0.4%. In addition, in data set [4] (2000 mg/kg, 2 weeks), the “Liver mass ratio, change compared to control group” value is on record as “–6.4%”; the “Lungs mass ratio, change compared to control group” value is “–10.7%”; the “Ovaries mass ratio, change compared to control group” value came out at 18.3%; the “Spleen mass ratio, change compared to control group” value was “–9.9%”. Moreover, the “Thymus mass ratio, change compared to control group” value in data set [4] (2000 mg/kg, 2 weeks) is listed as “–11.0%”. In data set [4] (2000 mg/kg), the “Adrenal glands mass ratio to whole body weight” value turned out to be 0.03 ± 0.003%, the “Brain mass ratio to whole body weight” value is 0.72 ± 0.02%, the “Heart mass ratio to whole body weight” value worked out at 0.32 ± 0.01% and the “Kidneys mass ratio to whole body weight” value turned out to be 0.64 ± 0.03%. In data set [4] (2000 mg/kg), the “Liver mass ratio to whole body weight” value was 2.77 ± 0.41%, the “Lungs mass ratio to whole body weight” value stood at 0.56 ± 0.03%, the “Ovaries mass ratio to whole body weight” value was determined as 0.06 ± 0.01% and the “Spleen mass ratio to whole body weight” value is on record as 0.43 ± 0.02%. Besides, the “Thymus mass ratio to whole body weight” value in data set [4] (2000 mg/kg) stood at 0.16 ± 0.01%. The “necropsy: architectonics of internal organs location” value in data set [4] (day 15 after intragastric 300 and 2000 mg/kg) is listed as “no pathological changes”. Besides, the “toxicity class according to the GHS classification” value in data set [4] (female, outbred white mongrel, rat, in vivo, 2 weeks) is listed as “class 5”. Besides, the LD50 at 2 weeks in data set [4] (female, outbred white mongrel, rat, in vivo, po, LD50 (acute oral toxicity), intragastric, female rats) was above 2000 mg/kg. Besides, the “LD50 (acute oral toxicity)” value in data set [4] (intragastric, female rats) lay within 2000 to 5000 mg/kg. In data set [4] (single intragastric limit dose 2000 mg/kg, 2 weeks observation), the “death in early and distant periods of observation” value was “does not contribute to death”. Moreover, in data set [5], the IC50 was 0.5 nM and the Ki was 3.1 nM.
In the case of `Cc1ccc(-c2cc(C(F)(F)F)nn2-c2ccc(S(N)(=O)=O)cc2)cc1` [celecoxib, reference compound], the “effect on paw edema (reduction of exudative reaction)” value in the data set on rat paw edema model (celecoxib 10 mg/kg i.p. 2 times a day for 4 days) worked out at 51%.
For the molecule `C[C@@H]1C[C@H]2[C@@H]3CCC4=CC(=O)C=C[C@]4(C)[C@@]3(F)[C@@H](O)C[C@]2(C)[C@@]1(O)C(=O)CO` [dexamethasone, reference compound], in the data set on rat paw edema model (dexamethasone 5 mg/kg i.p. 2 times a day for 4 days), the “effect on paw edema (reduction of exudative reaction)” value stood at 65%.
